What was measured:
Assay in all cases: relative viability (nuclei count vs DMSO), 5 days (fraction); higher = more cells survive
Palbociclib + Luminespib = compound: CC(=O)c1c(C)c2cnc(Nc3ccc(N4CCNCC4)cn3)nc2n(C2CCCC2)c1=O [Palbociclib] + CCNC(=O)c1noc(-c2cc(C(C)C)c(O)cc2O)c1-c1ccc(CN2CCOCC2)cc1 [Luminespib] (partner 0.01 µM)
In short: (§1)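 For relative viability, nuclei counts in treated wells were divided by those in vehicle wells. Lung cancer cell lines had been pin-tool dosed in 1536-well plates the day after seeding and cultured for 5 days, then fixed and stained in one step (final 0.05% Triton X-100, 1% formaldehyde, 1 ug/ml Hoechst) and imaged at 4×. Doses were one drug alone or a fixed anchor-drug dose plus five library-drug doses (not always all listed) in √10 steps, and values are duplicate-plate medians.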

Palbociclib + Dasatinib = compound: CC(=O)c1c(C)c2cnc(Nc3ccc(N4CCNCC4)cn3)nc2n(C2CCCC2)c1=O [Palbociclib] + Cc1nc(Nc2ncc(C(=O)Nc3c(C)cccc3Cl)s2)cc(N2CCN(CCO)CC2)n1 [Dasatinib] (partner 0.075 µM)
In short: as §1

Palbociclib + Decitabine = compound: CC(=O)c1c(C)c2cnc(Nc3ccc(N4CCNCC4)cn3)nc2n(C2CCCC2)c1=O [Palbociclib] + Nc1ncn([C@H]2C[C@H](O)[C@@H](CO)O2)c(=O)n1 [Decitabine] (partner 2 µM)
In short: as §1

Palbociclib + Olaparib = compound: CC(=O)c1c(C)c2cnc(Nc3ccc(N4CCNCC4)cn3)nc2n(C2CCCC2)c1=O [Palbociclib] + O=C(c1cc(Cc2n[nH]c(=O)c3ccccc23)ccc1F)N1CCN(C(=O)C2CC2)CC1 [Olaparib] (partner 8 µM)
In short: as §1

| Cell Line | relative viability (Palbociclib + Luminespib; first compound 0.01 µM) | relative viability (Palbociclib + Luminespib; first compound 0.03162 µM) | relative viability (Palbociclib + Luminespib; first compound 0.1 µM) | relative viability (Palbociclib + Luminespib; first compound 0.3162 µM) | relative viability (Palbociclib + Luminespib; first compound 1 µM) | relative viability (Palbociclib + Dasatinib; first compound 0.01 µM) | relative viability (Palbociclib + Dasatinib; first compound 0.03162 µM) | relative viability (Palbociclib + Dasatinib; first compound 0.1 µM) | relative viability (Palbociclib + Dasatinib; first compound 0.3162 µM) | relative viability (Palbociclib + Dasatinib; first compound 1 µM) | relative viability (Palbociclib + Decitabine; first compound 0.01 µM) | relative viability (Palbociclib + Decitabine; first compound 0.03162 µM) | relative viability (Palbociclib + Decitabine; first compound 0.1 µM) | relative viability (Palbociclib + Decitabine; first compound 0.3162 µM) | relative viability (Palbociclib + Decitabine; first compound 1 µM) | relative viability (Palbociclib + Olaparib; first compound 0.01 µM) | relative viability (Palbociclib + Olaparib; first compound 0.03162 µM) | relative viability (Palbociclib + Olaparib; first compound 0.1 µM) | relative viability (Palbociclib + Olaparib; first compound 0.3162 µM) | relative viability (Palbociclib + Olaparib; first compound 1 µM) |
| --- | --- | --- | --- | --- | --- | --- | --- | --- | --- | --- | --- | --- | --- | --- | --- | --- | --- | --- | --- | --- |
| NCI-H838 | 0.274 | 0.346 | 0.267 | 0.257 | 0.265 | 0.278 | 0.318 | 0.213 | 0.22 | 0.213 | 0.455 | 0.461 | 0.48 | 0.434 | 0.353 | 0.812 | 0.64 | 0.605 | 0.46 | 0.263 |
| LOU-NH91 | 0.341 | 0.322 | 0.271 | 0.348 | 0.324 | 0.66 | 0.425 | 0.429 | 0.434 | 0.41 | 0.817 | 0.732 | 0.693 | 0.631 | 0.61 | 0.959 | 0.696 | 0.677 | 0.664 | 0.559 |
| LXF-289 | 0.627 | 0.71 | 0.604 | 0.709 | 0.554 | 0.208 | 0.0993 | 0.164 | 0.148 | 0.174 | 0.367 | 0.405 | 0.411 | 0.363 | 0.422 | 1.1 | 1.08 | 0.951 | 0.969 | 0.865 |
| NCI-H1666 | 0.969 | 0.886 | 0.824 | 0.754 | 0.542 | 0.874 | 0.644 | 0.683 | 0.583 | 0.477 | 0.725 | 0.67 | 0.721 | 0.682 | 0.565 | 0.769 | 0.708 | 0.705 | 0.664 | 0.708 |
| NCI-H460 | 0.0282 | 0.0413 | 0.0309 | 0.0231 | 0.026 | 0.459 | 0.429 | 0.392 | 0.314 | 0.162 | 0.432 | 0.415 | 0.503 | 0.46 | 0.264 | 0.433 | 0.289 | 0.378 | 0.323 | 0.165 |
| SW 1573 | 0.385 | 0.207 | 0.257 | 0.208 | 0.265 | 0.495 | 0.321 | 0.354 | 0.394 | 0.277 | 0.573 | 0.455 | 0.598 | 0.479 | 0.326 | 0.463 | 0.452 | 0.454 | 0.359 | 0.291 |

From the supplement of paper PMC10307832
